Consider five molecules from patent US9056098B2, “Hemoglobin-based oxygen carrier-containing pharmaceutical composition for cancer targeting treatment and prevention of cancer recurrence” (Vision Global Holdings Ltd., priority 2012, dated 2015).

“And” between values parts separate entries of the source, which are not always exact repeats. Equal values may be shown once.

Holding throughout (assay type): cell-based
For test [1], the system named is MCF7 cells isolated from mammospheres (cancer stem cells). As to the kind of experiment: MTT assay on cancer stem cells from MCF7 mammospheres. The conditions noted are these: Hb 0.2 g/dL, Bort 0.5 μM, 5FU 5 μM. The procedure:
(§1) Cell viability is measured using a 3-(4,5-dimethylthiazol-2-yl)-2,5-diphenyltetrazolium bromide (MTT) proliferation assay. Briefly, HepG2 or Huh7 cells are seeded in a 96-well flat-bottomed microplate (6000 cells/well) and cultured in 100 μL growth medium at 37° C. and 5% CO2 for 24 h. Cell culture medium in each well is then replaced by 100 μL cell growth medium, containing either no drug, Hb alone or Hb with another chemotherapeutics at their IC50 concentrations. Incubation of Hb for 24 h, 20 μL MTT labeling reagent (5 mg/mL in PBS solution) is added to each well for further 4 h at 37° C. The growth medium is removed gently, and 200 μL DMSO is then added to each well as solubilizing agent to dissolve the formazan crystals completely. The absorbance at the wavelength of 570 nm is measured by Multiskan EX (Thermo Electron Corporation), and each data point represents the means±SD from triplicate wells.
To test sensitivity of the cancer stem cells to chemotherapeutic agent alone or to the combined therapy of hemoglobin-based oxygen carrier and the chemotherapeutic agent, different sets of chemotherapeutic agent and/or the hemoglobin-based oxygen carrier of the present invention are administered to MCF7 cells isolated from mammospheres which are obtained at later passages, e.g. passages 7 and 8. Before testing the sensitivity of the cancer stem cells, the drug resistance of CD44+/CD24− to chemotherapeutic agent is shown in FIG. 32. Unsorted MCF7 cells and CD44+/CD24− sorted cells are incubated with DMSO (as control) and 90 nM of Taxol for 16 hours and 4 days. Phase contrast images (FIG. 32) for each set of sample are taken at each time interval (16 hours and 4 days) and the sorted cells after Taxol treatment for 4 days are further tested by MTT assay (as described in Example 3) to confirm the drug resistance of these cells to chemotherapeutic agent.
The high resistance of the CSCs to chemotherapeutic agent is further confirmed by the results of MTT assays on single cells from two passages (P7 and P8) after the mammospheres are treated with different combination of chemical(s) for at least 24 hours before trypsinization of mammospheres. The mammospheres are grown under the hypoxic conditions (5% CO2, 1.1% 02) to mimic the physiological environment of a tumor. Different combination of chemical(s) used in the MTT assays include the Hb alone (0.2 g/dL), Bortezomib (“Bort”, 0.5 μM) alone, 5-fluorouracil (“5FU”, 5 μM) alone, or any combination of the above. In case of the combinational drug (i.e. Hb+at least one chemotherapeutic agent), the trypsinized cells are incubated with 0.2 g/dL of Hb for 24 hours followed by the addition of the intended chemotherapeutic agent(s) and incubated for another 24 hours. In the normalized value, “1” represents 100% of survival rate; 0.75 represents 75% of survival rate, etc.
(Formazan colour is commonly taken as a measure of viable cells.)

The test system of test [2] is HepG2 cells. As to the kind of experiment: MTT cytotoxicity assay in HepG2 cells. The procedure:
(§2) HepG2 and Huh7 cell lines are used. These cells are cultured in DMEM (Invitrogen) with 10% Fetal bovine serum (FBS), 100 U/ml penicillin and 100 μg/ml streptomycin at 37° C. For normoxic condition, cells are incubated with ambient O2 concentration and 5% CO2; for hypoxic condition, cells are incubated with 0.1-0.5% O2 (Quorum FC-7 automatic CO2/O2/N2 gas mixer) and 5% CO2.
as §1

In test [3] the test system is Huh7 cells. As to the kind of experiment: MTT cytotoxicity assay in Huh7 cells. The procedure:
as §2, §1

Test [4] has as its system CD44+/CD24− sorted MCF7 cells. As to the kind of experiment: Taxol resistance of CD44+/CD24− sorted MCF7 cells (morphology, MTT). The conditions noted are these: 90 nM. The procedure: as §1
In order to test the effect of hemoglobin-based oxygen carrier on the cancer stem cells in a tumor, the MCF7 cells are incubated under hypoxic condition (5% CO2 and 1.1% O2) for 9-20 days before passing to the cell sorter where two filters are used: PE-A for CD24 marker while APC-A for CD44 marker. Quadrant 1 where cells are positive to CD44 and negative to CD24 (FIG. 31) are sorted for further analysis. […]

[5] abbreviates: Mammosphere (P7) under Hypoxic condition.
[6] abbreviates: Mammosphere (P8) under Hypoxic condition.
Where [7] appears, read: Homo sapiens, HepG2, HepG2 hypoxic.
The mark [8] stands for this setting: Homo sapiens, HepG2, HepG2 normoxic.
Setting [9] is: Homo sapiens, Huh-7, Huh7 hypoxic.
Setting [10] is: Homo sapiens, Huh-7, Huh7 normoxic.

For `O=c1[nH]cc(F)c(=O)[nH]1` [5FU, 5-fluorouracil], the “Absorbance (replicates)” value was 0.171 and 0.197 and 0.139 and 0.143 and 0.169 in test [1] (setting [5]); 0.155 and 0.165 and 0.129 and 0.157 in test [1] (setting [6]). Further, the “Normalized absorbance (replicates), 1 represents 100% of survival rate” value in test [1] (setting [5]) was 0.7566 and 0.8942 and 0.9048 and 1.042 and 0.7355; in test [1] (setting [6]), 0.7416 and 0.7895 and 0.6172 and 0.7512. The “Normalized absorbance Avg, 1 represents 100% of survival rate” value is 0.8667 in test [1] (setting [5]) and 0.7249 in test [1] (setting [6]). The 50% inhibitory concentration (IC50) (in general, the concentration needed to halve the response being measured) in test [2] (setting [7]) was determined as 4000 µM; in test [2] (setting [8]), 4000 µM; in test [3] (setting [9]), 4000 µM; in test [3] (setting [10]) it was 3500 µM.
For the molecule `COc1cccc2c1C(=O)c1c(O)c3c(c(O)c1C2=O)C[C@@](O)(C(=O)CO)C[C@@H]3O[C@H]1C[C@H](N)[C@H](O)[C@H](C)O1` [Doxorubicin], the IC50 in test [2] (setting [7]) came to 30 µM; in test [2] (setting [8]), 10 µM; in test [3] (setting [9]) it was 6 µM; in test [3] (setting [10]), 5 µM.
Consider `N.N.[Cl][Pt][Cl]` [Cisplatin], for which the IC50 in test [2] (HepG2 hypoxic) was 170 µM; in test [2] (HepG2 normoxic) it was 130 µM; in test [3] (Huh7 hypoxic), 100 µM; in test [3] (Huh7 normoxic), 70 µM.
For `CC(=O)O[C@H]1C(=O)[C@@]2(C)[C@H]([C@H](OC(=O)c3ccccc3)[C@]3(O)C[C@H](OC(=O)[C@H](O)[C@@H](NC(=O)c4ccccc4)c4ccccc4)C(C)=C1C3(C)C)[C@]1(OC(C)=O)CO[C@@H]1C[C@@H]2O` [Taxol], in test [4] (4 days), the “survival (MTT)” value is “about 96%”. In test [4] (both unsorted and CD44+/CD24− sorted cells), the mammosphere formation entry is “seem to be inhibited”.
For the molecule `CC(C)C[C@H](NC(=O)[C@H](Cc1ccccc1)NC(=O)c1cnccn1)B(O)O` [Bortezomib], the “Absorbance (replicates)” value was 0.178 and 0.172 and 0.177 and 0.163 and 0.174 in test [1] (setting [5]); 0.169 and 0.166 and 0.159 and 0.155 in test [1] (setting [6]). For the same molecule, the “Normalized absorbance (replicates), 1 represents 100% of survival rate” value was 0.8624 and 0.9206 and 0.9418 and 0.9101 and 0.9365 in test [1] (setting [5]); 0.8086 and 0.7943 and 0.7608 and 0.7416 in test [1] (setting [6]). The “Normalized absorbance Avg, 1 represents 100% of survival rate” value in test [1] (setting [5]) is 0.9143; in test [1] (setting [6]), 0.7763. The IC50 amounted to 0.7 µM in test [2] (setting [7]), 0.5 µM in test [2] (setting [8]), 60 µM in test [3] (setting [9]) and 55 µM in test [3] (setting [10]). Moreover, the results for the “resistance of Huh7 cells as compared to HepG2 cells” value in test [3] (hypoxic condition) and in test [3] (normoxic condition) were 86 fold and 110 fold, respectively.
